# Data: patent US20040058984A1, “Stabilization of radiopharmaceutical compositions using hydrophilic thioethers and hydrophilic 6-hydroxy chromans” (priority 2003, published 2004)
# How the values were obtained:
# [1] = HPLC RCP of 99mTc-depreotide with hydrophilic thioether additives (Example 8); format: physicochemical; settings: for effect on 99mTc-labelled peptide radiolabelling yield or stability: 99mTc-depreotide; for 3.5 hr RCP / 6.5 hr RCP / Initial RCP: 99mTc-depreotide kit, additive 4 mg, heated prep
# Procedure: Each hydrophilic thioether was dissolved in water made up at 40 mg/mL and adjusted to pH 7 with HCl or NaOH. […] To the control vials were added 100 μL water.
# [2] = HPLC RCP of 99mTc-depreotide kits with L-methionine (Example 2); settings: formulated kits stored under normal conditions (≦−10° C.)
# Procedure: Lyophilized kit vials were prepared containing depreotide, L-methionine (Met), and other components as described in Table 3. All formulations were adjusted to pH 7.4 prior to lyophilization.
# The lyophilized kits were radiolabelled with ^99mTc by reconstitution with 1.0 mL technetium ^99mTc sodium pertechnetate (Technelite®) containing approximately 50 mCi ^99mTc and heating in a boiling water bath for 10 minutes. Some of the formulations were also radiolabelled in a room temperature preparation (allowed to stand at rom temperature 30 minutes following reconstitution).
# [3] = HPLC RCP of 99mTc-labelled benzodiazepinedione derivative kits with L-methionine (Example 4); format: physicochemical; settings: formulated kits
# Procedure: L-methionine was tested for its ability to stabilize a ^99mTc-labelled glycoprotein IIb/IIIa receptor-binding benzodiazepinedione derivative 1-[(carboxyglycyl-glycyl-glycyl-cysteinamide)methyl]-4-(2-carboxyethyl)-7-[(4-amidinophenyl)methyl]-3,4-dihydro-1H-1,4-benzodiazepine-2,5-dione trifluoroacetate, having the structure. [drawing 15]
# All formulations were adjusted to pH 7.4 prior to lyophilization.
# The lyophilized kits were radiolabelled with ^99mTc by reconstitution with 1.0 mL technetium ^99mTc sodium pertechnetate (Technelite®) containing approximately 50 mCi ^99mTc and heating in a boiling water bath for 10 minutes.
# [4] = HPLC RCP of 99mTc-labelled glycoprotein IIb/IIIa receptor-binding peptide with L-methionine (Example 5); format: physicochemical
# Procedure: Lyophilized kit vials were prepared containing the peptide (50 μg), sodium glucoheptonate dihydrate (10 mg), stannous chloride dihydrate (50 μg), and edetate disodium dihydrate (100 μg). The formulation was adjusted to pH 7.4 prior to lyophilization.
# The lyophilized kits were radiolabelled with ^99mTc in the presence and absence of L-methionine. […] Both vials were then reconstituted with 1.0 mL technetium ^99mTc sodium pertechnetate (Technelite®) containing approximately 50 mCi ^99mTc and allowed to incubate for 30 minutes at room temperature.
# [5] = HPLC RCP of 99mTc-labelled bisamine bisthiol non-peptide chelator with L-methionine (Example 7); format: physicochemical
# Text: The non-peptide chelator was radiolabelled with ^99mTc in the presence and absence of L-methionine using the placebo vial heated preparation procedure as described in Example 6.
SMILES,effect on 99mTc-labelled peptide radiolabelling yield or stability [1],3.5 hr RCP [1],6.5 hr RCP [1],Initial RCP [1],effect on radiolabelling yield and stability of 99mTc-depreotide [2],effect on radiolabelling yield and stability of the 99mTc-labelled benzodiazepinedione derivative [3],effect on radiolabelling yield and stability of the 99mTc-peptide [4],effect on radiolabelling yield and stability of a 99mTc-labelled non-peptide chelator [5]
CCSCCN [2-(Ethylthio)ethylamine],increase the radiolabelling yield and the stability,94.2,93.3,92.8,,,,
"CSCCC=O [3-(methylthio)propionaldehyde, reference compound]",no effect,,,,,,,
"CSCC(O)CO (stereo not shown) [3-Methylthio-1,2-propanediol, 3-methylthio-1,2-propanediol]",increase the radiolabelling yield and the stability,84.0,80.9,89.1,,,,
CSCC[C@H](N)C(=O)O [L-methionine],,90.4,89.3,95.0,increases the radiolabelling yield and the stability,increases the radiolabelling yield and the stability,increases the radiolabelling yield and the stability,increases the radiolabelling yield and the stability
"C[S+]([O-])CC[C@H](N)C(=O)O (stereo partly shown) [Methionine sulfoxide, reference compound]",no effect,,,,,,,
"CSCC[C@H](N)CO [Methioninol, methioninol]",increase the radiolabelling yield and the stability,93.9,90.7,94.1,,,,
"CS(=O)(=O)CC[C@H](N)C(=O)O [methionine sulfone, reference compound]",no effect,,,,,,,
